Assay results published in the supplement of paper PMC5412046.
Where a name gives a salt, the structure may show the parent alone.

tested on: SB.msgc-1; assay: AC50 for growth inhibition (viability) (log10 M); higher = less potent; settings: SB.msgc-1 (sporadic gastric cancer)
Summary of the method: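 Gastric cancer cells derived from patients with hereditary or sporadic disease were seeded at 500 cells in 5 μL medium per 1536 well. A pintool delivered 23 nL of compound in DMSO, as 11 threefold dilutions from a final 46 μM. After 48 h, CellTiter-Glo was added for 30 min at room temperature and luminescence was read on a ViewLux. The log half-maximal activity concentration was taken from a four-parameter fit of viability normalised to DMSO, using only high-quality curve classes.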

| SMILES | AC50 for growth inhibition (log10 M) |
| --- | --- |
| Cn1cnc([N+](=O)[O-])c1Sc1ncnc2nc[nH]c12 [Azathioprine] | -5.43 |
| O=C1\C=C/C[C@@H]2[C@H]3CCCN4CCC[C@@H](CN12)[C@@H]34 [Sophocarpine] | -4.78 |
| C[S+](=O)([O-])c1cccc(CNc2nc(Nc3ccc4c(c3)CCC(=O)N4)ncc2C(F)(F)F)c1 | -4.78 |
| CC[C@H](C)C(=O)O[C@H]1C[C@@H](C)\C=C2\C=C/[C@H](C)[C@H](CC[C@@H]3C[C@@H](O)CC(=O)O3)[C@@H]12 [Lovastatin] | -4.73 |
| CC(C)(C)c1cc(C(=O)O)c(NC(=O)Nc2ccc3[nH]ncc3c2)s1 [S6K-18] | -4.88 |
| O=C1NC(=O)/C(=C/c2ccc3c(c2)OC(F)(F)O3)S1 | -4.83 |
| N=C(N)NC(=N)N1CCOCC1 [Moroxydine] | -4.78 |
| c1cncc(CN2CCC(n3ncc4c(N5CCOCC5)nc(-c5ccc6[nH]ccc6c5)nc43)CC2)c1 [WAY-600] | -4.63 |
| N=C(N)NC(=N)NCCc1ccccc1 [Phenformin hydrochloride] | -5.88 |
| O=C([O-])C[C@H](O)C[C@H](O)/C=C/c1c(C2CC2)nc2ccccc2c1-c1ccc(F)cc1 [Pitavastatin calcium] | -5.03 |
| Cc1ccc(Nc2cc(-c3cccc(N4C(=O)c5ccccc5C4=O)c3)ncn2)cc1N[S+](C)(=O)[O-] [CDK9 inhibitor] | -4.63 |
| O=[N+]([O-])c1cn2c(n1)OC[C@@H](OCc1ccc(OC(F)(F)F)cc1)C2 [PA-824] | -5.33 |
| NC/1=N/C(=O)N/C=C1F [Flucytosine] | -4.88 |
| CCCC1OC2C[C@H]3[C@@H]4CCC5=CC(=O)C=C[C@]5(C)[C@H]4C(O)C[C@]3(C)[C@]2(C(=O)CO)O1 (stereo not given in full) [Budesonide] | -4.68 |
| CN1CCN(Cc2ccc(NC(=O)Nc3ccc(Oc4cc(NC(=O)C5CC5)ncn4)cc3)cc2C(F)(F)F)CC1 [WS3] | -5.93 |
| Cc1cc(-c2ccc(CC(=O)Nc3ccc(-c4cccnc4)cc3)cc2)ccn1 [Wnt-C59] | -4.78 |
| CCOc1ccc(Nc2nc(-c3c(C)nc4ccccn34)cs2)cc1 [JK 184] | -6.43 |
| COc1cc(OC2CCN(C)CC2)ccc1Nc1ncc2c(n1)n(C1CCCC1)c(=O)n2C [AZ-3146] | -4.78 |
| CC[C@H](CO)Nc1nc(NCc2ccccc2)c2ncn(C(C)C)c2n1 [Seliciclib] | -4.68 |
| O=C(Nc1ccccc1Br)N[C@@H]1CCN(c2ccc(C(F)(F)F)cn2)C1 | -4.73 |
| C[C@]12CCC(=O)C=C1CC[C@@H]1[C@@H]2CC[C@@]2(C)[C@H]1CC[C@]2(C)O [Methyltestosterone] | -4.42 |
| COCCCN1CCC(NC(=O)c2cc(Cl)c(N)c3c2OCC3)CC1 [Prucalopride] | -4.58 |
| CC(=O)Nc1nc(C)c(-c2ccc(Cl)c([S+](=O)([O-])NCCO)c2)s1 [PIK-93] | -5.83 |
| COC(=O)\C1=C\CCN(C)C1 [Arecoline] | -4.68 |
| Cc1onc(-c2ccccc2Cl)c1C(=O)N[C@@H]1C(=O)N2[C@@H]1SC(C)(C)[C@@H]2C(=O)[O-] [Sodium cloxacillin] | -5.48 |

| SMILES | AC50 for growth inhibition (log10 M) |
| --- | --- |
| CC[P](CC)(CC)=[Au][S][C@@H]1OC(COC(C)=O)[C@@H](OC(C)=O)[C@H](OC(C)=O)C1OC(C)=O (stereo not given in full) [Auranofin] | -5.53 |
| O=C(Nc1nc2cccc(-c3ccc(CN4CC[S+](=O)([O-])CC4)cc3)n2n1)C1CC1 [GPLG-0634] | -4.73 |
| CCNC(=O)C[C@H]1/N=C(/C2=CC=C(Cl)C=C2)C3=CC(=CC=C3[N]4C(=NN=C14)C)OC | -5.03 |
| Cc1cccc(Nc2nc(-c3ccncc3)cs2)c1 | -4.68 |
| CN(C)C(=O)C(CCN1CCC(O)(c2ccc(Cl)cc2)CC1)(c1ccccc1)c1ccccc1 [Loperamide hydrochloride] | -4.78 |
| CC(=O)Oc1cc2c(s1)CCN(C(C(=O)C1CC1)c1ccccc1F)C2.Cl (stereo not given) [Prasugrel] | -6.08 |
| CC(C)c1noc(N2CCC(COc3ccc(-c4ccc([S+](C)(=O)[O-])cc4)nc3)CC2)n1 | -5.23 |
| CN1CCCN(C(=O)c2cccc(-c3ccc(/C=C4/C(=O)Nc5ccc(Cl)cc54)o3)c2)CC1 [CX-6258] | -4.73 |
| OCCC#Cc1nc(-c2ccc(F)cc2)c(-c2ccncc2)n1CCCc1ccccc1 | -4.68 |
| CCCCCCCCCCCC(CC1OC(=O)C1CCCCCC)OC(=O)C(CC(C)C)NC=O (stereo not given) [Orlistat] | -4.78 |
| C[C@H]1[C@H](O)O[C@@H]2O[C@@]3(C)CC[C@H]4[C@H](C)CC[C@@H]1[C@@]24OO3 [Artenimol] | -5.68 |
| COc1cc(N2CCC(N3CCN(C)CC3)CC2)ccc1Nc1ncnc(Nc2ccccc2[S+](=O)([O-])C(C)C)n1 [ASP-3026] | -4.88 |
| CC[C@]1(O)C[C@H]2CN(CCC3=C([NH]C4=C3C=CC=C4)[C@@](C2)(C(=O)OC)C5=CC6=C(C=C5OC)N(C=O)[C@H]7[C@](O)([C@H](OC(C)=O)[C@]8(CC)\C=C/C[N@@]9CC[C@]67[C@H]89)C(=O)OC)C1 [Vincristine sulfate] | -8.48 |
| c1cc2c(cc1[C@H]1OC[C@H]3[C@@H]1CO[C@@H]3c1ccc3c(c1)OCO3)OCO2 [Sesamin] | -5.33 |
| CN1\C=N/C2=CC=C(NC3=CC(=CC=C3C)NC(=O)C4=CC(=CC=C4)C(C)(C)C#N)C=C2C1=O [AZ-628] | -5.23 |
| COc1ccc(C(=O)c2c(C)n(CCN3CCOCC3)c3cc(I)ccc23)cc1 [AM-630] | -4.63 |
| COC1=CC=CC(=C1N)\C2=C\C(=O)C3=C(O2)C=CC=C3 | -4.68 |
| C=C1C(=O)OC(CCCCCCCC)C1C(=O)O (stereo not given) [C-75] | -4.58 |
| FC1=CC=C(CN2\C=C/C=C(/C(=O)N[C@@H](COC3=CC4=C(NC(=O)N4)C=C3)C5=CC=CC=C5)C2=O)C=C1F [PDK1 inhibitor] | -4.68 |
| ClC1=C[NH]N=C1C\2NC(=N\C3=C2C(=O)CCC3)/NC4=NC5=CC=CC=C5O4 (stereo not given) | -4.78 |
| CC(C)OC1=CC=C2C(=C1)O\C=C(/C2=O)C3=CC=CC=C3 [Ipriflavone] | -4.78 |
| CC[C@@H]([C@H](C)O)n1ncn(-c2ccc(N3CCN(c4ccc(OCC5CO[C@@](Cn6cncn6)(c6ccc(F)cc6F)C5)cc4)CC3)cc2)c1=O (stereo not given in full) [Posaconazole] | -4.73 |
| CCc1c(O)cc(O)c(C(=O)c2ccc(OCCN3CCOCC3)c(OC)c2)c1CC(=O)N(CCOC)CCOC [KW-2478] | -6.58 |
| CCOC(=O)C(C)OC1=CC=CC2=C1\C=C/N(CC(=O)NC3=CC=C4OCCOC4=C3)C2=O (stereo not given) | -5.18 |
| O=c1cc(O)c(Cl)c[nH]1 [Gimeracil] | -4.68 |
